What was measured:
Thromboxansynthetase = target: T1, Thromboxansynthetase (Homo sapiens, UniProt P24557); assay: Inhibition of thromboxane synthetase (TXB2 formation from 14C-arachidonic acid in platelet suspension); type: cell-based; conditions: 10 min preincubation at room temperature, read-out: Hemmung der Thromboxansynthetase IC₅₀
T1 construct: Aliquots der erhaltenen Plättchensuspension werden mit der Testsubstanz bzw; Lösungsmittel als Kontrolle 10 Minuten bei Raumtemperatur inkubiert; endogenous in cells; host or cells: gel-filtered human platelets from venous blood
T1 sequence (P24557 1-533): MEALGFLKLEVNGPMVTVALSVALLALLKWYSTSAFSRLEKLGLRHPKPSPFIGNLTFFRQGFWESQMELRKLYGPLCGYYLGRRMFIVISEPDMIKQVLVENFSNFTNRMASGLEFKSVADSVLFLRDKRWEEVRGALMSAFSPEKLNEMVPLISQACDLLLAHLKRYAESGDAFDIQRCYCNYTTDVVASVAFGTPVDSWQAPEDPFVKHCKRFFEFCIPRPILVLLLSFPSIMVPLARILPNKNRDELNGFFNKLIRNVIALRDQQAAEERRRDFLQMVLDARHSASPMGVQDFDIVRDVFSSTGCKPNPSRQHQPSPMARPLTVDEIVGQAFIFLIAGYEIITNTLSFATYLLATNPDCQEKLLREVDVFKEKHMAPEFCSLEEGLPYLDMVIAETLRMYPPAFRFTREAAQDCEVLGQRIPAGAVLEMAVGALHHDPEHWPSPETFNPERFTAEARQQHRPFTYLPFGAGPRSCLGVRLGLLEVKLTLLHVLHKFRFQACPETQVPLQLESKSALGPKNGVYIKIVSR
Experimental: 3. Bestimmung der Hemmwirkung auf die Thromboxansynthetase
Venöses Humanblut wird mit 13 mM Na3-Citrat antikoaguliert und 10 Minuten bei 170 x g zentrifugiert. Das überstehende plättchenreiche Plasma wird zur Entfernung der Plasmaproteine über eine Sepharose-2B-Säule gegeben. Aliquots der erhaltenen Plättchensuspension werden mit der Testsubstanz bzw. Lösungsmittel als Kontrolle 10 Minuten bei Raumtemperatur inkubiert und nach Zugabe 14C-markierter Arachidonsäure die Inkubation weitere 10 Minuten fortgesetzt. Nach Abstoppen mit 50 µl Zitronensäure wird 3 x mit 500 µl Essigester extrahiert und die vereinigten Extrakte mit Stickstoff abgeblasen. Der Rückstand wird in Essigester aufgenommen, auf DC-Folie aufgetragen und mit Chloroform:Methanol:Eisessig:Wasser (90:8:1:0,8, v/v/v/v) getrennt. Die getrockneten DC-Folien werden 3 Tage auf Röntgenfilm gelegt, die Autoradiogramme entwickelt und mit ihrer Hilfe die aktiven Zonen auf der Folie markiert. Nach Ausschneiden wird die Aktivität im Szintillationszähler bestimmt und die Hemmung der TXB2-Bildung berechnet. Die IC₅₀ wird durch lineare Interpolation bestimmt.

Thromboxan = target: T2, Thromboxan (Homo sapiens, UniProt P21731); assay: Thromboxane-antagonistic effect (displacement of 3H-labelled ligand from platelet suspension); type: binding; conditions: 60 min at room temperature, read-out: Thromboxanantagonistische Wirkung IC₅₀
T2 construct: Aliquote der erhaltenen Plättchensuspension werden mit der Testsubstanz, dem Liganden (3H-markiert) und einem Marker (14C-markiert) 60 Minuten bei Raumtemperatur inkubiert; endogenous in cells; host or cells: gel-filtered human platelets from venous blood
T2 sequence (P21731 1-343): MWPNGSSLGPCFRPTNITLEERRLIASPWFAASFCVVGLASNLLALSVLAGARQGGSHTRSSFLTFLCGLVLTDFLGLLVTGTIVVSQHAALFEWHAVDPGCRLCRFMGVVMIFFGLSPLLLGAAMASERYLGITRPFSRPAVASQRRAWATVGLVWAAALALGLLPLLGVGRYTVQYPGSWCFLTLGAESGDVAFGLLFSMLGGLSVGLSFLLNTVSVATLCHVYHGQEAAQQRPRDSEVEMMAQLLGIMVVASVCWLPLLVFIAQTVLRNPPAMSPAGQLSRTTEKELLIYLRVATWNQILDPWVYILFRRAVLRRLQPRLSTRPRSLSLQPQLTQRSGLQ
Experimental: 2. Thromboxanantagonistische Wirkung
Venöses Humanblut wird mit 13 mM Na3-Citrat antikoaguliert und 10 Minuten bei 170 x g zentrifugiert. Das überstehende plättchenreiche Plasma wird zur Entfernung der Plasmaproteine über eine Sepharose-2B-Säule gegeben. Aliquote der erhaltenen Plättchensuspension werden mit der Testsubstanz, dem Liganden (3H-markiert) und einem Marker (14C-markiert) 60 Minuten bei Raumtemperatur inkubiert und danach 20 Sekunden bei 10 000 x g abzentrifugiert. Der Überstand wird abgezogen und das Pellet in NaOH gelöst. Die 3H-Aktivität im Überstand entspricht dem freien Liganden, 14C ergibt die Konzentration des Markers. 3H im Pellet entspricht dem gebundenen Liganden, 14C wird zur Korrektur für Ligand im Extrazellulärraum verwendet. Aus den Bindungswerten für verschiedene Konzentrationen der Testsubstanz wird nach Iteration die Verdrängungskurve ermittelt und die IC₅₀ bestimmt.

Thrombozytenaggregation = assay: Collagen-induced platelet aggregation (Born and Cross) in platelet-rich plasma; type: cell-based; conditions: Homo sapiens; platelet-rich plasma of healthy subjects, 10 min preincubation at 37°C, 50% change of optical density; read-out: Hemmung der collagen-induzierten Aggregation EC₅₀
Excerpt: 1. Antithrombotische Wirkung
Die Thrombozytenaggregation wird nach der Methode von Born und Cross (J. Physiol. 170, 397 (1964)) in plättchenreichem Plasma gesunder Versuchspersonen gemessen. Zur Gerinnungshemmung wird das Blut mit Natriumcitrat 3,14 % im Volumenverhältnis 1:10 versetzt.
Collagen-induzierte Aggregation
Der Verlauf der Abnahme der optischen Dichte der Plättchensuspension wird nach Zugabe der aggregationsauslösenden Substanz photometrisch gemessen und registriert. Aus dem Neigungswinkel der Dichtekurve wird auf die Aggregationsgeschwindigkeit geschlossen. Der Punkt der Kurve, bei dem die größte Lichtdurchlässigkeit vorliegt, dient zur Berechnung der "optical density".
Die Collagen-Menge wird möglichst gering gewählt, aber doch so, daß sich eine irreversibel verlaufende Reaktionskurve ergibt. Verwendet wird das handelsübliche Collagen der Firma Hormonchemie, München. Vor der Collagen-Zugabe wird das Plasma jeweils 10 Minuten mit der Substanz bei 37°C inkubiert.
Aus den erhaltenen Meßzahlen wird graphisch eine EC₅₀ bestimmt, die sich auf eine 50%ige Änderung der "optical density" im Sinne einer Aggregationshemmung bezieht.

IC50 (Thromboxansynthetase) [nM] | IC50 (Thromboxan) [nM] | Compound | EC50 (Thrombozytenaggregation) [nM]
4 | 4 | O=C(O)CCCC=C(c1ccc(NC(=O)C2CC2c2ccc(Cl)cc2)cc1)c1cccnc1 (single isomer, unassigned; (-)) [A, (-)-5E-6-[4-(Z-2-(4-Chlorphenyl)-cyclopropyl-1-carboxamido)-phenyl]-6-(3-pyridyl)-hex-5-ensäure] | 500
4 | 8 | O=C(O)CCC/C=C(/c1cccnc1)c1cccc(NC(=O)CCc2ccc(Cl)cc2)c1 [B, 5E-6-[3-(3-(4-Chlorphenyl)-propionylamino)-phenyl]-6-(3-pyridyl)-hex-5-ensäure] | 2200
90 | 17 | CN(C(=S)Nc1ccc(Cl)cc1Cl)c1cccc(/C(=C\CCCC(=O)O)c2cccnc2)c1 [D, 5E-6-[3-(3-(2,4-Dichlorphenyl)-1-methylthioureido)-phenyl]-6-(3-pyridyl)-hex-5-ensäure] | 1200
32 | 12 | O=C(O)CCC/C=C(/c1cccnc1)c1cccc(NC(=S)Nc2ccc(Cl)cc2)c1 [C, 5E-6-[3-(3-(4-Chlorphenyl)-thioureido)-phenyl]-6-(3-pyridyl)-hex-5-ensäure] | 800

Source: patent EP0487095B1, “Pyridyl derivatives, medicines containing these compounds and processes for their preparation” (Dr. Karl Thomae GmbH, priority 1990, dated 1992)
